# Results reported in patent US4410629A, “ML-236B Derivatives and their preparation” (Sankyo Company Limited, priority 1980, dated 1983).
# Counter-ions that a name gives are not always drawn.
# Assays:
# cholesterol biosynthesis = assay: Inhibition of cholesterol biosynthesis (method of J. Biol. Chem. 234, 2835 (1959)); assay type: biochemical
# serum cholesterol levels = conditions: animals; J. Antibiotics 29, 1346 (1976); cited from earlier work
# [1] = tested on: 3-hydroxy-3-methylglutaryl-coenzyme A reductase; conditions: competing with the rate-limiting enzyme HMG-CoA reductase; J. Antibiotics 29, 1346 (1976); cited from earlier work
SMILES,concentration required to inhibit cholesterol biosynthesis by 50% (cholesterol biosynthesis) [µg/mL],serum cholesterol levels (serum cholesterol levels),inhibition of the biosynthesis of cholesterol by enzymes or cultured cells [1]
CC[C@H](C)C(=O)O[C@H]1CC=CC2=C[C@@H](O)[C@H](C)[C@H](CC[C@@H]3C[C@@H](O)CC(=O)O3)[C@H]21 [IsoM-4' lactone],0.013,–,–
CC[C@H](C)C(=O)O[C@H]1CC=CC2=C[C@@H](O)[C@H](C)[C@H](CC[C@@H](O)C[C@@H](O)CC(=O)OC)[C@H]21 [IsoM-4' methyl ester],0.007,–,–
CC[C@H](C)C(=O)O[C@H]1C[C@H](O)C=C2C=C[C@H](C)[C@H](CC[C@@H](O)C[C@@H](O)CC(=O)OC)[C@H]21 [M-4 methyl ester],0.001,–,–
CC[C@H](C)C(=O)O[C@H]1C[C@H](O)C=C2C=C[C@H](C)[C@H](CC[C@@H](O)C[C@@H](O)CC(=O)O)[C@H]21 [M-4 sodium salt],0.0008,–,–
CC[C@H](C)C(=O)O[C@H]1C[C@@H](O)C=C2C=C[C@H](C)[C@H](CC[C@@H](O)C[C@@H](O)CC(=O)O)[C@H]21 [M-4' sodium salt],0.00049,–,–
CCC(C)C(=O)OC1CCC=C2C=CC(C)C(CCC3CC(O)CC(=O)O3)C21 (centres unmarked) [ML-236B],0.01,significantly reduces serum cholesterol levels of animals,inhibit the biosynthesis of cholesterol
